Data on 1 molecule can be found in ChEMBL document CHEMBL5223101, “Evolution of 3-(4-hydroxyphenyl)indoline-2-one as a scaffold for potent and selective anticancer activity” (RSC Med Chem, 2022).

Bounds are passed on as bounds.

A short description of this assay: Anticancer activity against human ECC-1 cells assessed as cell death at 1 uM by tryphan blue staining based cell counter analysis relative to control.

Consider `Cc1cccc2c1NC(=O)C2(c1ccc(O)cc1)c1ccc(O)cc1`, for which the cell death at 1 µM was below 20%.
